Source: patent US12065442B2, “Tropomyosin receptor kinase (TRK) degradation compounds and methods of use” (Cullgen (Shanghai), Inc., priority 2018, dated 2024)

System: KM12 cells
Assay: Cell viability assay (CellTiter-Glo) in KM12 cells
Type: cell-based
Details: Homo sapiens, 72 h; Table 2; KM12 cell viability, CellTiter-Glo, 3 days; read-out: IC50

Point of comparison: `O=C1CCC(N2C(=O)c3cccc(NCCCCCC(=O)N4CCN(c5cccc(-c6cnc7ccc(N8CCC[C@@H]8c8cccc(F)c8)nn67)n5)CC4)c3C2=O)C(=O)N1` (some centres unmarked) [CPD-015], IC50 14.9 nM. Against it:
- Cc1ncsc1-c1ccc(CNC(=O)[C@@H]2C[C@@H](O)CN2C(=O)[C@@H](NC(=O)CCOCCOCCOCCOCCOCCC(=O)N2CCN(c3ccc(C(=O)Nc4n[nH]c5ccc(Cc6cc(F)cc(F)c6)cc45)c(NC4CCOCC4)c3)CC2)C(C)(C)C)cc1 [CPD-043, (2S,4R)-1-((S)-2-(tert-butyl)-22-(4-(4-((5-(3,5-Difluorobenzyl)-1H-indazol-3-yl)carbamoyl)-3-((tetrahydro-2H-pyran-4-yl)amino)phenyl)piperazin-1-yl)-4,22-dioxo-7,10,13,16,19-pentaoxa-3-azadocosanoyl)-4-hydroxy-N-(4-(4-methylthiazol-5-yl)benzyl)pyrrolidine-2-carboxamide] — higher, > 1000 nM
- O=C1CCC(N2C(=O)c3cccc(NCC(=O)N4CCN(c5ccc(C(=O)Nc6n[nH]c7ccc(Cc8cc(F)cc(F)c8)cc67)c(NC6CCOCC6)c5)CC4)c3C2=O)C(=O)N1 (centres unmarked) [CPD-055, N-(5-(3,5-difluorobenzyl)-1H-indazol-3-yl)-4-(4-((2-(2,6-dioxopiperidin-3-yl)-1,3-dioxoisoindolin-4-yl)glycyl)piperazin-1-yl)-2-((tetrahydro-2H-pyran-4-yl)amino)benzamide] — within 1.5-fold, 13 nM
- O=C1CCC(N2C(=O)c3cccc(NCCCCCCC(=O)N4CCN(c5cccc(-c6cnc7ccc(N8CCC[C@@H]8c8cccc(F)c8)nn67)n5)CC4)c3C2=O)C(=O)N1 (stereo partly drawn) [CPD-009, 2-(2,6-Dioxopiperidin-3-yl)-4-((7-(4-(6-(6-((R)-2-(3-fluorophenyl)pyrrolidin-1-yl)imidazo[1,2-b]pyridazin-3-yl)pyridin-2-yl)piperazin-1-yl)-7-oxoheptyl)amino)isoindoline-1,3-dione] — 2.3-fold higher, 35 nM
- O=C(CN1CCN(c2ccc(C(=O)Nc3n[nH]c4ccc(Cc5cc(F)cc(F)c5)cc34)c(NC3CCOCC3)c2)CC1)NCCNc1cccc2c1C(=O)N(C1CCC(=O)NC1=O)C2=O (centres unmarked) [CPD-062, N-(5-(3,5-difluorobenzyl)-1H-indazol-3-yl)-4-(4-(2-((2-((2-(2,6-dioxopiperidin-3-yl)-1,3-dioxoisoindolin-4-yl)amino)ethyl)amino)-2-oxoethyl)piperazin-1-yl)-2-((tetrahydro-2H-pyran-4-yl)amino)benzamide] — 1.9-fold higher, 29 nM
- O=C1CCC(N2C(=O)c3cccc(NCCC(=O)N4CCN(c5ccc(C(=O)Nc6n[nH]c7ccc(Cc8cc(F)cc(F)c8)cc67)c(NC6CCOCC6)c5)CC4)c3C2=O)C(=O)N1 (centres unmarked) [CPD-051, N-(5-(3,5-difluorobenzyl)-1H-indazol-3-yl)-4-(4-(3-((2-(2,6-dioxopiperidin-3-yl)-1,3-dioxoisoindolin-4-yl)amino)propanoyl)piperazin-1-yl)-2-((tetrahydro-2H-pyran-4-yl)amino)benzamide] — within 1.5-fold, 11 nM
- Cc1ncsc1-c1ccc(CNC(=O)[C@@H]2C[C@@H](O)CN2C(=O)[C@@H](NC(=O)CCCC(=O)N2CCN(c3cccc(-c4cnc5ccc(N6CCC[C@@H]6c6cccc(F)c6)nn45)n3)CC2)C(C)(C)C)cc1 [CPD-012, (2S,4R)-1-((S)-2-(5-(4-(6-(6-((R)-2-(3-Fluorophenyl)pyrrolidin-1-yl)imidazo[1,2-b]pyridazin-3-yl)pyridin-2-yl)piperazin-1-yl)-5-oxopentanamido)-3,3-dimethylbutanoyl)-4-hydroxy-N-(4-(4-methylthiazol-5-yl)benzyl)pyrrolidine-2-carboxamide] — higher, > 1000 nM
- Cc1ncsc1-c1ccc(CNC(=O)[C@@H]2C[C@@H](O)CN2C(=O)[C@@H](NC(=O)COCC(=O)N2CCN(c3cccc(-c4cnc5ccc(N6CCC[C@@H]6c6cccc(F)c6)nn45)n3)CC2)C(C)(C)C)cc1 [CPD-008, (2S,4R)-1-((S)-2-(2-(2-(4-(6-(6-((R)-2-(3-Fluorophenyl)pyrrolidin-1-yl)imidazo[1,2-b]pyridazin-3-yl)pyridin-2-yl)piperazin-1-yl)-2-oxoethoxy)acetamido)-3,3-dimethylbutanoyl)-4-hydroxy-N-(4-(4-methylthiazol-5-yl)benzyl)pyrrolidine-2-carboxamide] — higher, > 1000 nM
- Cc1ncsc1-c1ccc(CNC(=O)[C@@H]2C[C@@H](O)CN2C(=O)[C@@H](NC(=O)CCCCCCCCCC(=O)N2CCN(c3ccc(C(=O)Nc4n[nH]c5ccc(Cc6cc(F)cc(F)c6)cc45)c(NC4CCOCC4)c3)CC2)C(C)(C)C)cc1 [CPD-035, (2S,4R)-1-((S)-2-(11-(4-(4-((5-(3,5-Difluorobenzyl)-1H-indazol-3-yl)carbamoyl)-3-((tetrahydro-2H-pyran-4-yl)amino)phenyl)piperazin-1-yl)-11-oxoundecanamido)-3,3-dimethylbutanoyl)-4-hydroxy-N-(4-(4-methylthiazol-5-yl)benzyl)pyrrolidine-2-carboxamide] — 20-fold higher, 300 nM

Same assay, conditions: Homo sapiens, 72 h; Table 3; KM12 cell viability, CellTiter-Glo, 3 days; read-out: IC50

Point of comparison: `O=C1CCC(N2C(=O)c3ccc(NCCOCCOCCOCCOCCOCCC(=O)N4CCN(c5ccc(C(=O)Nc6n[nH]c7ccc(Cc8cc(F)cc(F)c8)cc67)c(NC6CCOCC6)c5)CC4)cc3C2=O)C(=O)N1` (centres unmarked) [TR-137, N-(5-(3,5-Difluorobenzyl)-1H-indazol-3-yl)-4-(4-(1-((2-(2,6-dioxopiperidin-3-yl)-1,3-dioxoisoindolin-5-yl)amino)-3,6,9,12,15-pentaoxaoctadecan-18-oyl)piperazin-1-yl)-2-((tetrahydro-2H-pyran-4-yl)amino)benzamide], IC50 2.5 nM. Against it:
- O=C(CN1CCN(c2ccc(C(=O)Nc3n[nH]c4ccc(Cc5cc(F)cc(F)c5)cc34)c(NC3CCOCC3)c2)CC1)NCCOCCOCCOCCOCCNc1cccc2c1C(=O)N(C1CCC(=O)NC1=O)C2=O (centres unmarked) [TR-150, N-(5-(3,5-Difluorobenzyl)-1H-indazol-3-yl)-4-(4-(17-((2-(2,6-dioxopiperidin-3-yl)-1,3-dioxoisoindolin-4-yl)amino)-2-oxo-6,9,12,15-tetraoxa-3-azaheptadecyl)piperazin-1-yl)-2-((tetrahydro-2H-pyran-4-yl)amino)benzamide] — 6.6-fold higher, 16.6 nM
- O=C(CN1CCN(c2ccc(C(=O)Nc3n[nH]c4ccc(Cc5cc(F)cc(F)c5)cc34)c(NC3CCOCC3)c2)CC1)NCCOCCOCCOCCOCCNc1ccc2c(c1)C(=O)N(C1CCC(=O)NC1=O)C2=O (centres unmarked) [TR-160, N-(5-(3,5-Difluorobenzyl)-1H-indazol-3-yl)-4-(4-(17-((2-(2,6-dioxopiperidin-3-yl)-1,3-dioxoisoindolin-5-yl)amino)-2-oxo-6,9,12,15-tetraoxa-3-azaheptadecyl)piperazin-1-yl)-2-((tetrahydro-2H-pyran-4-yl)amino)benzamide] — 1.9-fold higher, 4.8 nM
- O=C(CN1CCN(c2cccc(-c3cnc4ccc(N5CCC[C@@H]5c5cccc(F)c5)nn34)n2)CC1)NCCCCNc1ccc2c(c1)C(=O)N(C1CCC(=O)NC1=O)C2=O (stereo partly drawn) [TR-124, N-(4-((2-(2,6-dioxopiperidin-3-yl)-1,3-dioxoisoindolin-5-yl)amino)butyl)-2-(4-(6-(6-((R)-2-(3-fluorophenyl)pyrrolidin-1-yl)imidazo[1,2-b]pyridazin-3-yl)pyridin-2-yl)piperazin-1-yl)acetamide] — within 1.5-fold, 2.8 nM
- O=C1CCC(N2Cc3cc(OCCN4CCN(c5cccc(-c6cnc7ccc(N8CCC[C@@H]8c8cccc(F)c8)nn67)n5)CC4)ccc3C2=O)C(=O)N1 (stereo partly drawn) [TR-200, 3-(5-(2-(4-(6-(6-((R)-2-(3-fluorophenyl)pyrrolidin-1-yl)imidazo[1,2-b]pyridazin-3-yl)pyridin-2-yl)piperazin-1-yl)ethoxy)-1-oxoisoindolin-2-yl)piperidine-2,6-dione] — 40-fold higher, 101 nM
- O=C(CN1CCN(c2cccc(-c3cnc4ccc(N5CCC[C@@H]5c5cccc(F)c5)nn34)n2)CC1)NCCOCCNc1cccc2c1C(=O)N(C1CCC(=O)NC1=O)C2=O (stereo partly drawn) [TR-106, N-(2-(2-((2-(2,6-dioxopiperidin-3-yl)-1,3-dioxoisoindolin-4-yl)amino)ethoxy)ethyl)-2-(4-(6-(6-((R)-2-(3-fluorophenyl)pyrrolidin-1-yl)imidazo[1,2-b]pyridazin-3-yl)pyridin-2-yl)piperazin-1-yl)acetamide] — 1.5-fold higher, 3.8 nM
- O=C1CCC(N2Cc3cc(C#CC(=O)N4CCN(c5cccc(-c6cnc7ccc(N8CCC[C@@H]8c8cccc(F)c8)nn67)n5)CC4)ccc3C2=O)C(=O)N1 (some centres unmarked) [TR-203] — within 1.5-fold, 3.7 nM
- O=C(CN1CCN(c2cccc(-c3cnc4ccc(N5CCC[C@@H]5c5cccc(F)c5)nn34)n2)CC1)NCCCCCCNc1ccc2c(c1)C(=O)N(C1CCC(=O)NC1=O)C2=O (stereo partly drawn) [TR-128, N-(6-((2-(2,6-dioxopiperidin-3-yl)-1,3-dioxoisoindolin-5-yl)amino)hexyl)-2-(4-(6-(6-((R)-2-(3-fluorophenyl)pyrrolidin-1-yl)imidazo[1,2-b]pyridazin-3-yl)pyridin-2-yl)piperazin-1-yl)acetamide] — within 1.5-fold, 3.3 nM
- O=C1CCC(N2C(=O)c3ccc(N4CCC(N5CCN(c6cccc(-c7cnc8ccc(N9CCC[C@@H]9c9cccc(F)c9)nn78)n6)CC5)CC4)cc3C2=O)C(=O)N1 (stereo partly drawn) [TR-182, 2-(2,6-Dioxopiperidin-3-yl)-5-(4-(4-(6-(6-((R)-2-(3-fluorophenyl)pyrrolidin-1-yl)imidazo[1,2-b]pyridazin-3-yl)pyridin-2-yl)piperazin-1-yl)piperidin-1-yl)isoindoline-1,3-dione] — 6.4-fold higher, 16 nM
- O=C(CN1CCN(c2ccc(C(=O)Nc3n[nH]c4ccc(Cc5cc(F)cc(F)c5)cc34)c(NC3CCOCC3)c2)CC1)NCCCCNc1ccc2c(c1)C(=O)N(C1CCC(=O)NC1=O)C2=O (centres unmarked) [TR-156, N-(5-(3,5-Difluorobenzyl)-1H-indazol-3-yl)-4-(4-(2-((4-((2-(2,6-dioxopiperidin-3-yl)-1,3-dioxoisoindolin-5-yl)amino)butyl)amino)-2-oxoethyl)piperazin-1-yl)-2-((tetrahydro-2H-pyran-4-yl)amino)benzamide] — within 1.5-fold, 3.3 nM

Same assay, conditions: Homo sapiens, 72 h; Table 4; KM12 cell viability, CellTiter-Glo, 3 days; read-out: IC50

With `O=C1CCC(N2C(=O)c3ccc(N4CC(CN5CCN(c6ccc(C(=O)Nc7n[nH]c8ccc(Cc9cc(F)cc(F)c9)cc78)c(NC7CCOCC7)c6)CC5)C4)cc3C2=O)C(=O)N1` (centres unmarked) [TR-231, N-(5-(3,5-Difluorobenzyl)-1H-indazol-3-yl)-4-(4-((1-(2-(2,6-dioxopiperidin-3-yl)-1,3-dioxoisoindolin-5-yl)azetidin-3-yl)methyl)piperazin-1-yl)-2-((tetrahydro-2H-pyran-4-yl)amino)benzamide] the IC50 was 3 nM.
